# Source: paper PMC4368888, “Preclinical to Clinical Translation of CNS Transporter Occupancy of TD-9855, a Novel Norepinephrine and Serotonin Reuptake Inhibitor” (International Journal of Neuropsychopharmacology, 2015)
# “And” between values parts separate entries of the source, which are not always exact repeats. Identical values can stand only once.
# Key:
# [1] = human, data on file, cited from earlier work
# SERT = SERT (Homo sapiens, UniProt P31645); assay: Human PET SERT occupancy with [11C]-DASB; type: in vivo; parameters: from tissue; host or cells: brain of healthy male volunteers, in vivo PET
# Chain of SERT (P31645 whole entry): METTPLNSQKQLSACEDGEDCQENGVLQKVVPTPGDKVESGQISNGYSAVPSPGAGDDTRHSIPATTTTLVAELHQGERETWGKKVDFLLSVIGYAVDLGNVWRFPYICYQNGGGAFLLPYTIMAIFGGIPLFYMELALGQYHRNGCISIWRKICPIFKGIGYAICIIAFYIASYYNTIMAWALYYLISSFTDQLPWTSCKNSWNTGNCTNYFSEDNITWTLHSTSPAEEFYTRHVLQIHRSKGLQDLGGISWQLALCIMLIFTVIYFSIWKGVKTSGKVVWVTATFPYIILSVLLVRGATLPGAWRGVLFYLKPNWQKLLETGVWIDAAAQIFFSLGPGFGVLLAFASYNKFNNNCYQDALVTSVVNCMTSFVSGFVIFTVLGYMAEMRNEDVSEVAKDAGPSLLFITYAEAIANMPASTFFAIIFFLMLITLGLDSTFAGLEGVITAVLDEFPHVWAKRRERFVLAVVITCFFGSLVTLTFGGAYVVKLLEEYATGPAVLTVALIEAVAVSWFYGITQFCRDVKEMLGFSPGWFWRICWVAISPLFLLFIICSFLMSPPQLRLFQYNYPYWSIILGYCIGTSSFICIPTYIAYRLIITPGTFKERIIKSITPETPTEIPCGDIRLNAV
# Description: This was a Phase 1, open-label, single-dose study in healthy male volunteers to evaluate NET and SERT occupancy in the human brain after oral administration of TD-9855 using PET.
# The study was conducted at the Yale PET Center in accordance with the principles of the International Conference on Harmonisation’s Technical Requirements for Registration of Pharmaceuticals for Human Use Guideline for Good Clinical Practice. The protocol was approved by the Yale University Human Investigation Committee and the Yale–New Haven Hospital Radiation Safety Committee. SERT and NET occupancy were determined using the selective radiotracers [^11C]-DASB ([Meyer et al., 2004]; [Takano et al., 2006]; [Abanades et al., 2011]; [Nogami et al., 2013]) and [^11C]-MRB. Selection of the radiotracers and the dose of TD-9855 were flexible to minimize the number of PET scans.
# Eligible subjects were enrolled and received either [^11C]-MRB and/or [^11C]-DASB. Each subject underwent up to 5 PET scans over a period of up to 8 days. Multiple dose levels of TD-9855 (up to 20mg) were explored. All randomized subjects received the NET tracer (single-tracer evaluation) and some subjects (n = 3) received both the NET and SERT tracers sequentially (dual-tracer evaluation) in the baseline and post-dose period. […] In the dual-tracer evaluation, subjects completed sequential [^11C]-DASB and [^11C]-MRB baseline scans with each tracer, sequential post-dose scans with each tracer at 7–10hr post-dose, and one follow-up scan with [^11C]-MRB on or between Days 3 and 7. […]
# For both studies, binding potentials (BP ND) were estimated using a method based on a reference region input curve. […] The suitability of MRTM2 to estimate [^11C]-MRB BP ND values was evaluated in a previous study ([Hannestad et al., 2010]), in which it was shown that MRTM2 BP ND estimates are highly correlated with BP ND estimated with arterial blood sampling and the multilinear analysis 1 (y = 0.909 x + 0.078, r^2 = 0.821, where x represents the MA1 BP ND values and y represents the MRTM2 BP ND values). […]
smiles,measurement,setting,value
"Fc1cc(F)c(OCc2ccccc2C2CCNCC2)c(F)c1 [TD-9855, 4-[2-(2,4,6-trifluorophenoxymethyl)phenyl]piperidine]",Tmax,"[1]; ascending single dose studies, ref Theravance Biopharma US, Inc.",6 to 12 h
same,pharmacokinetic (plasma) half-life,"[1]; ref Theravance Biopharma US, Inc.",30 to 40 h
same,accumulation in plasma after repeated administration,[1]; ref Theravance,3- to 4 fold
same,average SERT occupancy,"SERT; 20mg single oral dose, Day 1, mean ± SD, n = 3, at plasma level 6.35ng/mL",25 (±8) %
same,Apparent SERT Occupancy Day 1,"SERT; 20 mg single oral dose, individual subjects, rApp ± SE, listed as TH-9855",15.5±2.6% and 29.1±2.2% and 30.5±3.1%
same,levels of SERT occupancy across subjects,"SERT; single dose of 20mg, n = 3",15–30%
